Reference: patent publication US12635689B2, “Antifungal compositions” (priority 2019, dated 2026)
Converted amounts (≈) assume the structure as drawn. “Also recorded” adds a separate entry of the source.

What was measured:
Z. tritici mitochondria [1] = type: cell-based, Zymoseptoria tritici
Z. tritici mitochondria [2] = type: cell-based, Zymoseptoria tritici; settings: for mitochondrial depolarisation / inhibition of mitochondrial respiration: Z. tritici
[3] = tested on: C109 human skin fibroblasts; assay: Mitochondrial organization in human skin fibroblasts; type: cell-based
Procedure: The effects on mitochondria may account for the fungal specificity of C12-G+. To test this, mammalian skin C109 fibroblasts were treated with C12-G+ and monitored for its effect on mitochondrial shape and membrane potential.
Low toxicity to humans and in the environment is an important requirement for fungicides. The toxicity of C12-TPP+, C18-TMA+ and C18-DMS+ was therefore tested on C109 human skin fibroblasts. Mitochondrial organization and mitochondrial membrane potential were monitored after incubating with various concentrations of the compounds.

[4] = tested on: C109 human skin fibroblasts; assay: Mitochondrial membrane potential in human skin fibroblasts
Z. tritici cells [5] = type: cell-based, Zymoseptoria tritici
Z. tritici [6] = type: cell-based, Zymoseptoria tritici
C. albicans [7] = type: cell-based, Candida albicans
Candida glabrata = type: cell-based
[8] = tested on: Candida albicans mitochondria; type: cell-based
[9] = tested on: Candida glabrata mitochondria; type: cell-based
Daphnia magna [10] = assay: Daphnia magna 30 minute treatment, TMRM mitochondrial potential; type: in vivo; settings: 1 μg/ml for 30 minutes
Procedure: In addition, the toxicity of C12-G+, C18-TMA+ and C18-DMS+ on the water flea Daphnia magna was investigated. This freshwater crustacean is well-established as a reporter organism in toxicity tests. Firstly, Daphnia magna was treated with 1 μg/ml of C12-G+, C18-TMA+ and C18-DMS+ for 30 minutes, followed by visualization of the mitochondrial potential by TMRM.

Daphnia magna [11] = assay: Daphnia magna 24 h toxicity (motility, escape response as indicator of mortality); type: in vivo
Procedure: Next, water fleas were treated for 24 h with various concentrations of all three SACCs and their motility behaviour and “escape response” monitored as an indicator of mortality. […] Higher amounts of both C18 SACCs eventually killed Daphnia magna, with C18-TMA+ being 1.8-times more toxic than C18-DMS+.

U. maydis [12] = type: cell-based, Ustilago maydis
C. albicans [13] = type: cell-based, Candida albicans; remark: listed apart in the source
C. glabrata = type: cell-based, Candida glabrata
Z. tritici cells [14] = assay: Programmed cell death, CaspACE FITC-VAD-FMK with propidium iodide co-staining; type: cell-based, Zymoseptoria tritici; settings: 24 h treatment
Z. tritici cells [15] = assay: Programmed cell death, Annexin-V-fluorescein staining; type: cell-based, Zymoseptoria tritici
[16] = tested on: Z. tritici (strain IPO323); set-up: species or system Zymoseptoria tritici on wheat; settings: in vivo
M. oryzae (strain Guy11) = type: in vivo, Magnaporthe oryzae on rice; settings: rice; for protection at high concentrations: M. oryzae, high concentrations (75 and 100 μg/ml); for disease symptom development: sprayed 24 h before M. oryzae, 4 days, concentration-dependent
rice leaves [17] = assay: Early plant defence response, diaminobenzidine (DAB) staining of H2O2; type: in vivo; settings: 150 μg/ml SACC (salicylic acid 15 mM), 6 h
wheat leaves = settings: in vivo
rice leaves [18] = settings: in vivo
Z. tritici [19] = assay: Growth inhibition on agar plates supplemented with compound; type: cell-based, Zymoseptoria tritici
U. maydis [20] = assay: as above; type: cell-based, Ustilago maydis
U. maydis [21] = assay: Live/dead staining in liquid culture; type: cell-based, Ustilago maydis
[22] = tested on: Z. tritici plasma membrane; type: cell-based, Zymoseptoria tritici
[23] = tested on: U. maydis plasma membrane; assay: Plasma membrane integrity with GFP-Sso1 marker (patches, photo-bleaching recovery); type: cell-based, Ustilago maydis
Z. tritici [24] = assay: Plasma membrane potential, DiBAC4(3) staining; type: cell-based, Zymoseptoria tritici; settings: high concentrations
Procedure: (§1) Drug-induced leakage of ions from the cell was then determined by visualizing alterations of the membrane potential in C12-G+-treated cells, using the voltage-sensitive fluorescent probe bis-(1,3-dibutylbarbituric acid) trimethine oxonol, DiBAC4(3), which only stains depolarised cells. […] Therefore, the effect on the plasma membrane is most likely not the primary MoA of C12-G+ in fungi.

U. maydis [25] = assay: Plasma membrane potential, DiBAC4(3) staining; type: cell-based, Ustilago maydis; settings: high concentrations
Procedure: as §1

U. maydis mitochondria = assay: Mitochondrial depolarisation, TMRM staining; type: cell-based, Ustilago maydis; settings: low amounts
cellular respiration = assay: Cellular oxygen consumption in cell suspensions; type: cell-based, U. maydis

In the case of CCCCCCCCCCCC[P+](c1ccccc1)(c1ccccc1)c1ccccc1 [C12-TPP+, dodecyltriphenylphosphonium], the “EC50 on Z. tritici (mitochondrial fragmentation)” value (from here on “EC50 on Z. tritici”) (Z. tritici mitochondria [1]) is reported as 6.63 µg/mL, the “mitochondrial depolarisation / inhibition of mitochondrial respiration” value (Z. tritici mitochondria [2]) is reported as “showed significant inhibition of mitochondrial respiration” and the “EC, human mitochondrial organization” value ([3]; C109 fibroblasts) is reported as 5.62 µg/mL. The “effect on human mitochondrial organization” value ([3]; C109 fibroblasts, various concentrations) was “little effect on human mitochondrial organization” and the “EC50, human mitochondrial respiration” value ([4]; C109 fibroblasts) was 0.355 µg/mL.

CCCCCCCCCCCC[N+](C)(C)C [C12-TMA+, dodecyltrimethylammonium] was tested, and the “EC50 on Z. tritici” value (Z. tritici mitochondria [1]) was 3.85 µg/mL.

In the case of antimycin A, the mROS levels (Z. tritici cells [5]) is reported as “increase of mROS”.

For octadecyldimethylsulfonium [C18-DMS+], the “killing (LIVE/DEAD staining)” value (Z. tritici [6]; 12-14 h exposure, 10 μg/ml) was “efficiently killed”, the “killing (LIVE/DEAD staining)” value (C. albicans [7]) was “efficiently killed” and the “relative toxicity in C. albicans” value (C. albicans [7]) was “most toxic”. The “killing (LIVE/DEAD staining)” value (Candida glabrata) was “efficiently killed”, the “EC50 on Z. tritici” value (Z. tritici mitochondria [1]) was 1.72 µg/mL and the “mitochondrial depolarisation / inhibition of mitochondrial respiration” value (Z. tritici mitochondria [2]) was “showed significant inhibition of mitochondrial respiration”. For the same compound, the mitochondrial potential [8] was “reduce the mitochondrial potential”, the mitochondrial potential [9] was “reduce the mitochondrial potential” and the “human mitochondria less sensitive (mitochondrial morphology)” value ([3]; printed as compared to C12-G+) was roughly 29 times. For the same compound, the “mitochondrial potential (TMRM) in Daphnia magna” value (Daphnia magna [10]) was “little or no effect on mitochondrial potential”, the “motility of Daphnia magna” value (Daphnia magna [10]) was “did not affect the motility” and the “effect on Daphnia magna” value (Daphnia magna [11]; at ~1 μg/ml) was “little effect at this concentration”. For the same compound, the mROS levels (Z. tritici cells [5]) was “significantly induced; also recorded: induced mROS production further”, the “mROS levels with complex I inhibitor rotenone” value (Z. tritici cells [5]) was “did not increase mROS levels” and the mROS levels (U. maydis [12]) was “significantly induced”. The mROS levels (C. albicans [13]) was “significantly induced”, the mROS levels (C. glabrata) was “significantly induced” and the “early apoptotic cells (CaspACE FITC-VAD-FMK positive, propidium iodide negative)” value (Z. tritici cells [14]) was “significant increase in early apoptotic cells”. The “Annexin-V-fluorescein membrane-associated fluorescence in apoptotic cells” value (Z. tritici cells [15]) was “only found in C18-DMS+-treated cells”, the disease symptom development [16] was “Symptom development was inhibited” and the “protection at high concentrations” value [16] was “almost abolished symptom developments”. For the same compound, the “protection at high concentrations” value (M. oryzae (strain Guy11)) was “almost abolished symptom developments”, the disease symptom development (M. oryzae (strain Guy11)) was “Symptom development was inhibited” and the “peroxide production / DAB reaction (plant defence)” value (from here on “peroxide production / DAB reaction”) (rice leaves [17]) was “much stronger DAB reaction”. The “chlorosis or necrosis (phytotoxicity)” value (wheat leaves) was “none of the SACCs induced chlorosis or necrosis”, the “chlorosis or necrosis (phytotoxicity)” value (rice leaves [18]) was “none of the SACCs induced chlorosis or necrosis” and the “higher specificity for fungi than for humans (inhibition of mitochondrial respiration)” value ([4]; Z. tritici vs human cells) was roughly 53 times.

For CCCCCCCCCCCC[S+](C)C [C12-DMS+, dodecyldimethylsulfonium], the “EC50 on Z. tritici” value (Z. tritici mitochondria [1]) was 7.39 µg/mL and the mROS levels (Z. tritici cells [5]) was “did not increase mROS levels”.

With O=C(O)c1ccccc1O [salicylic acid] the “peroxide production / DAB reaction” value (rice leaves [17]) was “brown colouring”.

For C=C(C)[C@H]1Cc2c(ccc3c2O[C@@H]2COc4cc(OC)c(OC)cc4[C@@H]2C3=O)O1 [rotenone], the mROS levels (Z. tritici cells [5]) was “decreased mROS levels” and the “more effective in decreasing mROS than C12-G+ and C18-TMA+” value (Z. tritici cells [5]) was 3-4 times.

In the case of CCCCCCCCCCCC[N+](CC)(CC)CC [C12-TEA+, dodecyltriethylammonium], the “EC50 on Z. tritici” value (Z. tritici mitochondria [1]) is reported as 2.38 µg/mL.

In the case of CCCCCCCCCCCCNC(=N)N [C12-G+, dodecylguanidinium], the “Z. tritici more sensitive than U. maydis (growth inhibition)” value (Z. tritici [19]) is reported as roughly 4 times, the “EC50, concentration at 50% inhibition of growth” value (Z. tritici [19]; Z. tritici) is reported as 0.6 µg/mL and the “EC50, concentration at 50% inhibition of growth” value (U. maydis [20]) is reported as 2.3 µg/mL. For the same compound, the cell viability (Z. tritici [6]; 30-45 minutes incubation, up to 100 μg/ml) was “most cells were still alive”, the cells killed (Z. tritici [6]; after 1 h at 100 μg/ml) was greater than 80% and the cell viability (U. maydis [21]; 30-45 minutes incubation, up to 50 μg/ml) was “most cells were still alive”. For the same compound, the killing (U. maydis [21]; after 1 h at 100 μg/ml) was roughly 15%, the “EC50, effect on fungal plasma membrane” value ([22]; Z. tritici) was 20 to 50 µg/mL and the “lateral mobility of GFP-Sso1” value ([22]; Z. tritici) was “this effect was not observed”. For the same compound, the “Z. tritici less sensitive than U. maydis (GFP-Sso1 patches)” value ([22]; at 50 μg/ml) was roughly 2 times, the “formation of GFP-Sso1 patches at the cell periphery” value ([22]; high concentrations, Z. tritici) was “induced the formation of GFP-Sso1” and the “formation of GFP-Sso1 patches at the cell periphery” value ([23]; high concentrations) was “induced the formation of GFP-Sso1”. For the same compound, the “lateral mobility of GFP-Sso1” value ([23]; ≥10 μg/ml) was “significantly reduced the mobility of GFP-Sso1”, the “number of depolarised cells (DiBAC4(3))” value (Z. tritici [24]) was “had only little effect” and the “number of depolarised cells (DiBAC4(3))” value (U. maydis [25]) was “increased the number of depolarised cells”. The “EC50 on Z. tritici” value (Z. tritici mitochondria [1]) was 6.63 µg/mL (≈ 29.2 µM), the “Z. tritici more sensitive than U. maydis (mitochondrial membrane potential)” value (Z. tritici mitochondria [2]) was roughly 4 times and the “mitochondrial depolarisation (TMRM)” value (U. maydis mitochondria) was “depolarised mitochondria”. For the same compound, the cellular oxygen consumption (cellular respiration) was “inhibits cellular respiration”, the “effect on mitochondrial organization” value ([3]; beyond 20 μg/ml) was “caused organelle fragmentation and swollen cristae” and the “effect on mitochondrial organization” value ([3]; concentrations up to 20 μg/ml) was “little effect on mitochondrial organization”. The “mitochondrial potential (TMRM) in Daphnia magna” value (Daphnia magna [10]) was “lost most signal”, the “motility of Daphnia magna” value (Daphnia magna [10]) was “did not affect the motility” and the “concentration that killed all Daphnia magna” value (Daphnia magna [11]) was roughly 1000 ng/mL. For the same compound, the “antimycin A-induced mROS in the presence of compound” value (Z. tritici cells [5]) was “significantly reduced”, the mROS levels (Z. tritici cells [5]) was “decreased mROS concentrations; also recorded: significantly reduced mROS” and the “early apoptotic cells (CaspACE FITC-VAD-FMK positive, propidium iodide negative)” value (Z. tritici cells [14]) was “Only a few apoptotic cells”. The disease symptom development [16] was “Symptom development was inhibited”, the “protection at high concentrations” value [16] was “does not fully suppress; also recorded: did not fully suppress infection” and the “protection at high concentrations” value (M. oryzae (strain Guy11)) was “does not fully suppress; also recorded: did not fully suppress infection”. For the same compound, the disease symptom development (M. oryzae (strain Guy11)) was “Symptom development was inhibited”, the “peroxide production / DAB reaction” value (rice leaves [17]) was “slight peroxide production” and the “chlorosis or necrosis (phytotoxicity)” value (wheat leaves) was “none of the SACCs induced chlorosis or necrosis”. The “chlorosis or necrosis (phytotoxicity)” value (rice leaves [18]) was “none of the SACCs induced chlorosis or necrosis” and the “effect on mitochondrial membrane potential” value ([4]; C109 fibroblasts) was “modest effect”.
